Assays:
[1] = molecular target: T1, C-X-C chemokine receptor type 1 (Homo sapiens, UniProt P25024); note: in other assays of this panel Not Active means under 50% inhibition at 10 µM
T1 sequence (P25024 whole entry): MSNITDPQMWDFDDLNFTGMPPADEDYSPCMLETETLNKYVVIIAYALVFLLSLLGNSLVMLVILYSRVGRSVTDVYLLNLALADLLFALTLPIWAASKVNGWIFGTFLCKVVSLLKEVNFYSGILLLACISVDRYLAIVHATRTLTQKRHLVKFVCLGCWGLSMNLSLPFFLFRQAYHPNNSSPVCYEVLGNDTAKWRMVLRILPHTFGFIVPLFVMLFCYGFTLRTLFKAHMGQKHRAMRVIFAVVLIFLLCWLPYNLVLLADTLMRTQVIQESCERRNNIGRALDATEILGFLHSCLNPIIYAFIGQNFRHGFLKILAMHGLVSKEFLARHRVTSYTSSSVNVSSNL

[2] = DRUGMATRIX: Glutamate, NMDA, Phencyclidine radioligand binding (ligand: [3H] TCP); format: cell membranes, Rattus norvegicus, Wistar, Cerebral cortex, Membrane; settings: Not Active = under 50% inhibition at 10 µM
[3] = DRUGMATRIX: Imidazoline I2, Central radioligand binding (ligand: [3H] Idazoxan); format: cell membranes, Rattus norvegicus, Wistar, Cerebral cortex, Membrane; settings: Not Active = under 50% inhibition at 10 µM
[4] = molecular target: Delta-type opioid receptor (Homo sapiens, UniProt P41143); format: cell membranes, HEK293, Membrane; settings: hek293; note: in other assays of this panel Not Active means under 50% inhibition at 10 µM
[5] = molecular target: Sigma non-opioid intracellular receptor 1 (Homo sapiens, UniProt Q99720); experiment: DRUGMATRIX: Sigma1 radioligand binding (ligand: [3H] Haloperidol); format: cell membranes, Jurkat, Membrane; settings: jurkat; Not Active = under 50% inhibition at 10 µM
[6] = DRUGMATRIX: Phorbol Ester radioligand binding (ligand: [3H] PDBu); format: cell membranes, Mus musculus, ICR, Brain, Membrane; settings: Not Active = under 50% inhibition at 10 µM
[7] = molecular target: T2, C-X-C chemokine receptor type 2 (Homo sapiens, UniProt P25025); format: cell membranes, Membrane; settings: cho-k1; note: in other assays of this panel Not Active means under 50% inhibition at 10 µM
T2 sequence (P25025 whole entry): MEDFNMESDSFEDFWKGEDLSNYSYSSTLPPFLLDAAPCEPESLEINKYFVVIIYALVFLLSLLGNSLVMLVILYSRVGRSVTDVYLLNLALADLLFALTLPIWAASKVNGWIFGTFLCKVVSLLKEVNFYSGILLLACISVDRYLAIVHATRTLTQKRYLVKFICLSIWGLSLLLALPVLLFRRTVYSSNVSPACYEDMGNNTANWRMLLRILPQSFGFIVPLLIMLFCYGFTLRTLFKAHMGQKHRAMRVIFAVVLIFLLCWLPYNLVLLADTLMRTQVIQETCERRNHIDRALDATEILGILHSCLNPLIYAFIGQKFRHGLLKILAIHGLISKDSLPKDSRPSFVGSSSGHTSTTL

[8] = molecular target: Tyrosine-protein kinase Fyn (Homo sapiens, UniProt P06241); experiment: biochemical; format: cell-based, Insect cells;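 note: enzymatic inhibition of Fyn kinase activity measured with Poly(Glu:Tyr) as the phosphorylation substrate; in other assays of this panel Not Active means under 50% inhibition at 10 µM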
[9] = molecular target: Beta-1 adrenergic receptor (Homo sapiens, UniProt P08588); experiment: DRUGMATRIX: Adrenergic beta1 radioligand binding (ligand: [125I] Cyanopindolol); format: cell membranes, CHO-K1, Membrane; settings: Not Active = under 50% inhibition at 10 µM
[10] = molecular target: Vascular endothelial growth factor receptor 1 (Homo sapiens, UniProt P17948); format: cell-based; settings: huvec; note: in other assays of this panel Not Active means under 50% inhibition at 10 µM
[11] = DRUGMATRIX: Interleukin IL-1 radioligand binding (ligand: [125I] interleukin 1beta); format: cell membranes, Membrane; settings: nih3t3; Not Active = under 50% inhibition at 10 µM
Cannabinoid receptor 1 = Cannabinoid receptor 1 (Homo sapiens, UniProt P21554); format: cell membranes, Membrane; settings: chem-1; note: in other assays of this panel Not Active means under 50% inhibition at 10 µM
Neutrophil elastase = molecular target: T3, Neutrophil elastase (Homo sapiens, UniProt P08246); format: tissue-based
T3 sequence (P08246 whole entry): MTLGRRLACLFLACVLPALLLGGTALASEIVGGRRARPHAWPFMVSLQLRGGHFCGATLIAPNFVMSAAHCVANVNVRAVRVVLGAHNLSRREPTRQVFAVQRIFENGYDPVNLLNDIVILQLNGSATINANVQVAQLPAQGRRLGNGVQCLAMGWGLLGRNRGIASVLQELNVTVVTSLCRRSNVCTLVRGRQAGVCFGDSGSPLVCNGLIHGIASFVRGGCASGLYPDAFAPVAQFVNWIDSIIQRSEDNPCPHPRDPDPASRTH

[12] = DRUGMATRIX: Leukotriene, BLT (LTB4) radioligand binding (ligand: [3H]LTB4); format: cell membranes, Membrane; settings: u-937; Not Active = under 50% inhibition at 10 µM
[13] = molecular target: Tyrosine-protein kinase Lck (Homo sapiens, UniProt P06239); experiment: DRUGMATRIX: Protein Tyrosine Kinase, LCK enzyme inhibition (substrate: Poly(Glu:Tyr)); format: cell-based, Insect cells; settings: Not Active = under 50% inhibition at 10 µM
[14] = molecular target: Mitogen-activated protein kinase 14 (Homo sapiens, UniProt Q16539); set-up: species or system Escherichia coli
Insulin receptor = Insulin receptor (Rattus norvegicus, UniProt P15127); format: cell membranes, Wistar, Liver, Membrane; note: in other assays of this panel Not Active means under 50% inhibition at 10 µM
[15] = molecular target: T4, 5-hydroxytryptamine receptor 2C (Homo sapiens, UniProt P28335); experiment: DRUGMATRIX: Serotonin (5-Hydroxytryptamine) 5-HT2C radioligand binding (ligand: [3H] Mesulergine); format: cell membranes, CHO-K1, Membrane; settings: Not Active = under 50% inhibition at 10 µM
T4 sequence (P28335 whole entry): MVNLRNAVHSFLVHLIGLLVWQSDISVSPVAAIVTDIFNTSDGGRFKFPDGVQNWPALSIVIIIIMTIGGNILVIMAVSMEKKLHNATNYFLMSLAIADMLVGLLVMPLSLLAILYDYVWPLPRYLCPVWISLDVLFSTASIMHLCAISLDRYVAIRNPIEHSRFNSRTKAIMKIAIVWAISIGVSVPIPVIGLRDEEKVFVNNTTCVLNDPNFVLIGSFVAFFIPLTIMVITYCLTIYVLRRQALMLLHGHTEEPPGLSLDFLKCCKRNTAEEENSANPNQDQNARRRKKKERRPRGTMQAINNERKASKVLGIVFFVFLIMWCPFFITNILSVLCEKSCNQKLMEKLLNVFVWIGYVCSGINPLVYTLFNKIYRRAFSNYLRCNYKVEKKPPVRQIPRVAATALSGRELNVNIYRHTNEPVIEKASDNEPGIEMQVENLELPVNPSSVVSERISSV

Tyrosine-protein kinase Lck, sequence (P06239 whole entry): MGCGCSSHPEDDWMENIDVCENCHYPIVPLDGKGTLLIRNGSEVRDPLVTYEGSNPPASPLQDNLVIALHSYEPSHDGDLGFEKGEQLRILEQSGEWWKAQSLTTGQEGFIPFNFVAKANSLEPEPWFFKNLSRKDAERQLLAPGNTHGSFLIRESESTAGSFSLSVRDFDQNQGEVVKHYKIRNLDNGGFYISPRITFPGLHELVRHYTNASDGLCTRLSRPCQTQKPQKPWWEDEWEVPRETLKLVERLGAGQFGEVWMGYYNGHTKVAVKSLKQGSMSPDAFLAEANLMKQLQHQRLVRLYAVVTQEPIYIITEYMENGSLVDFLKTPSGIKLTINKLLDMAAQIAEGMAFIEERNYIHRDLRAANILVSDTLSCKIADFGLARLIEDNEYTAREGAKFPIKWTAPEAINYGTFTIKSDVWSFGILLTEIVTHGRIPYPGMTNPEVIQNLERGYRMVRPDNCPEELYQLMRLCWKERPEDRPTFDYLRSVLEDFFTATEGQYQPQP
Sigma non-opioid intracellular receptor 1, sequence (Q99720 whole entry): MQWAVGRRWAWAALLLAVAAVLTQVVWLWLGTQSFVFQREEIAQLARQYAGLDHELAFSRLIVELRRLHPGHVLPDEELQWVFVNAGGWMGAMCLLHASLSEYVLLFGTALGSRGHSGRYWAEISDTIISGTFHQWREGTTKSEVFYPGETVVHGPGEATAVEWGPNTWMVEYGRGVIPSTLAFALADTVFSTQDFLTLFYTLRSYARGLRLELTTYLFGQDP
Vascular endothelial growth factor receptor 1, sequence (P17948 whole entry): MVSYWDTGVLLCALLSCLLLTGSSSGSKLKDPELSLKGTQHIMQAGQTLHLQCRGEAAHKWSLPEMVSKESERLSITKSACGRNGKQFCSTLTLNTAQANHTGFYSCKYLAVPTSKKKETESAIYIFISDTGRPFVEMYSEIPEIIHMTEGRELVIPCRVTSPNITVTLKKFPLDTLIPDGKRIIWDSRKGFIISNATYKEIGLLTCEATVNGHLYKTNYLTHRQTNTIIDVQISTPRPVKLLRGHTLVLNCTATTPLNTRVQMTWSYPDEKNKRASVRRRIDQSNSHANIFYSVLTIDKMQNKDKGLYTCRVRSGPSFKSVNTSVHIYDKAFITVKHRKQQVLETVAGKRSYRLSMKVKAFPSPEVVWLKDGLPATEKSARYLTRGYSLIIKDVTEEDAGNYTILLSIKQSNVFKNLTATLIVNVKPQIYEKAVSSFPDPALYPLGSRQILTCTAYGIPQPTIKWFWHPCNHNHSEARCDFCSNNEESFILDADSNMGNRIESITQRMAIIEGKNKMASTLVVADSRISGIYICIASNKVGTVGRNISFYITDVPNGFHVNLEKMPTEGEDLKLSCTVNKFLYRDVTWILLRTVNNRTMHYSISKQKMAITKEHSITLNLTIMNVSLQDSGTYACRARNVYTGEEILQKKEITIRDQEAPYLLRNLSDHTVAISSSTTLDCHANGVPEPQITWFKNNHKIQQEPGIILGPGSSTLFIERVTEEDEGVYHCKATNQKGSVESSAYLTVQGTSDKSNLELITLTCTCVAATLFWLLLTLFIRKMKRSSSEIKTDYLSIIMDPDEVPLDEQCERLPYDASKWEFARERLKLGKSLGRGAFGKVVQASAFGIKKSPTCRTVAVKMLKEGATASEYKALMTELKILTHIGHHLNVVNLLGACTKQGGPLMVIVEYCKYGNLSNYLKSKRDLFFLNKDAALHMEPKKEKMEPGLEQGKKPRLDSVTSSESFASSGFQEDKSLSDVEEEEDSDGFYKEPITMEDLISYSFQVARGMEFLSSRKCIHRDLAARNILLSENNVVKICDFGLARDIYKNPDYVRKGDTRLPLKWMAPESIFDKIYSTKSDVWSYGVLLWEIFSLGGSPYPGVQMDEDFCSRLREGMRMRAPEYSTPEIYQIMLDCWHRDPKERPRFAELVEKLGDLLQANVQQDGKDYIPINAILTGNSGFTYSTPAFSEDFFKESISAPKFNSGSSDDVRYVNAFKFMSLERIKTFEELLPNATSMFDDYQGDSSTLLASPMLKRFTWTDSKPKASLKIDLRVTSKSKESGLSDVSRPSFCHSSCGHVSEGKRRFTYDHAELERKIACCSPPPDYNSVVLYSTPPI
Delta-type opioid receptor, sequence (P41143 whole entry): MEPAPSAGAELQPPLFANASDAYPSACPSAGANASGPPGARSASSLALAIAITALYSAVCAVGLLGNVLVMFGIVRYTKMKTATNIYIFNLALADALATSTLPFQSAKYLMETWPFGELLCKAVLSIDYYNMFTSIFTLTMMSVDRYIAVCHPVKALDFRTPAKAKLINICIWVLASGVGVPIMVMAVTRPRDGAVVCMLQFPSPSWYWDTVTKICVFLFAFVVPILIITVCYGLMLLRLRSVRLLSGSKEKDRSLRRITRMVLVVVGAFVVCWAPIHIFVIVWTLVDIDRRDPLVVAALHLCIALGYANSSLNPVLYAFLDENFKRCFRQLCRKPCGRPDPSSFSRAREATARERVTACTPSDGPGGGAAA
Beta-1 adrenergic receptor, sequence (P08588 whole entry): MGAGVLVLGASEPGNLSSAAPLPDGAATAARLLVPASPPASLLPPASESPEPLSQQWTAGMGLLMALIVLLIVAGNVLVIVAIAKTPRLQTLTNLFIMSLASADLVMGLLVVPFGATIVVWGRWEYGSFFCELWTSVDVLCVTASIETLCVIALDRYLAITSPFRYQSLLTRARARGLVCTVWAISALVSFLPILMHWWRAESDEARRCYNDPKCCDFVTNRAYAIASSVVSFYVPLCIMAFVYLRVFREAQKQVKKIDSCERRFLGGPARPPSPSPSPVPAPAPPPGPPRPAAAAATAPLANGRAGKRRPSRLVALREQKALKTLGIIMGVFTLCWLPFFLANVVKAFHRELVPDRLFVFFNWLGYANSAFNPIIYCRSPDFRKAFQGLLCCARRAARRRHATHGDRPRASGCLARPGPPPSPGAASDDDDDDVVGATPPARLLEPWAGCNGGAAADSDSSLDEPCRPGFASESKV
Cannabinoid receptor 1, sequence (P21554 whole entry): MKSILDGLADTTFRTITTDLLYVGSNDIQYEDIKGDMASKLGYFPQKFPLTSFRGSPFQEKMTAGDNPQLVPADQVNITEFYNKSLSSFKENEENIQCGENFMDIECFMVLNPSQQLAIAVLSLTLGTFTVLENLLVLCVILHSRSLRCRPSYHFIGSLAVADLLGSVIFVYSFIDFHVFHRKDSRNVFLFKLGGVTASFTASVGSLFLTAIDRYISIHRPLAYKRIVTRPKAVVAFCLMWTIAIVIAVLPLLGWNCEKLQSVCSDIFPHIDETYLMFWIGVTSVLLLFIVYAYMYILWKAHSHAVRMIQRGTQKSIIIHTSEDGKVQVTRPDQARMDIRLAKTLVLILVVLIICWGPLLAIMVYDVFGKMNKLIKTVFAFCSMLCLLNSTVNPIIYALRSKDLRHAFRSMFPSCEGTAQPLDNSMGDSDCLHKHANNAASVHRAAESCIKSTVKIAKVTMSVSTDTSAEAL
Tyrosine-protein kinase Fyn, sequence (P06241 whole entry): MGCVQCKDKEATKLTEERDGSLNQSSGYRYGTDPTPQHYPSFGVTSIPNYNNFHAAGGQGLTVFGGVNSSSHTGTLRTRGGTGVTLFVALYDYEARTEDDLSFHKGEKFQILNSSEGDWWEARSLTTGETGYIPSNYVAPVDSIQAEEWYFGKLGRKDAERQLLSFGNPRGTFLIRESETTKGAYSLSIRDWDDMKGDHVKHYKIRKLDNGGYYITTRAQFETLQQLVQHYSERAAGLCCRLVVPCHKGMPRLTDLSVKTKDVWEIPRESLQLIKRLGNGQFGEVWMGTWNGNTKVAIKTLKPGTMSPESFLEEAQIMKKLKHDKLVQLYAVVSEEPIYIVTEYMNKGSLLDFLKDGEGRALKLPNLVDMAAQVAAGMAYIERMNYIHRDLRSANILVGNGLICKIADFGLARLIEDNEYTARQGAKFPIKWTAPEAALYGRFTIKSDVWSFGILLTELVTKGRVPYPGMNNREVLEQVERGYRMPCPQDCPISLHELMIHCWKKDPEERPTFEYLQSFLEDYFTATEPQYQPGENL
Mitogen-activated protein kinase 14, sequence (Q16539 whole entry): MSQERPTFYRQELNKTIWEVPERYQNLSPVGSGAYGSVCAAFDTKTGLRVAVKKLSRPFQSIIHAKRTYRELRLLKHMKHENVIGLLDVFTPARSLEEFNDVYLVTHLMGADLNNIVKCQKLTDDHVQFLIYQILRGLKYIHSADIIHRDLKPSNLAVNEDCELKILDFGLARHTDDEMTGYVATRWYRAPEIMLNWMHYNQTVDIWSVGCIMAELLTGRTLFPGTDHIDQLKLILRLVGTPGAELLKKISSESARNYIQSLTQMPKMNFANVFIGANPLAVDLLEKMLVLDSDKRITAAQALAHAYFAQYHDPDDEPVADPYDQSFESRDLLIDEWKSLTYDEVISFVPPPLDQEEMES

Compound	IC50 [1]	IC50 [2]	Ki [2]	IC50 [3]	Ki [3]	IC50 [4]	IC50 [5]	IC50 [6]	Ki [6]	IC50 [7]	IC50 ([8]; insect cells)	IC50 [10]	IC50 [11]	Ki [11]	IC50 (Cannabinoid receptor 1)	IC50 (Neutrophil elastase)	IC50 [12]	Ki [12]	IC50 [14]	IC50 (Insulin receptor)	also measured
N#C[C@H](O[C@@H]1O[C@H](CO[C@@H]2O[C@H](CO)[C@@H](O)[C@H](O)[C@H]2O)[C@@H](O)[C@H](O)[C@H]1O)c1ccccc1 [AMYGDALIN]	Not Active	Not Active	Not Active	Not Active	Not Active	Not Active	Not Active	Not Active	Not Active	Not Active	Not Active	Not Active	Not Active	Not Active	Not Active	Not Active	Not Active	Not Active	Not Active	Not Active	IC50 ([9]; cho-k1): Not Active; IC50 ([13]; insect cells): Not Active; IC50 ([15]; cho-k1): Not Active
CC(C)(Oc1ccc(CCNC(=O)c2ccc(Cl)cc2)cc1)C(=O)O [BEZAFIBRATE]	Not Active	Not Active	Not Active	Not Active	Not Active	Not Active	Not Active	Not Active	Not Active	Not Active	Not Active	Not Active	Not Active	Not Active	Not Active	Not Active	Not Active	Not Active	Not Active	Not Active	IC50 ([9]; cho-k1): Not Active; IC50 ([13]; insect cells): Not Active; IC50 ([15]; cho-k1): Not Active
CC=CC(=O)N(CC)c1ccccc1C	Not Active	Not Active	Not Active	Not Active	Not Active	Not Active	Not Active	Not Active	Not Active	Not Active	Not Active	Not Active	Not Active	Not Active	Not Active	Not Active	Not Active	Not Active	Not Active	Not Active	IC50 ([9]; cho-k1): Not Active; IC50 ([13]; insect cells): Not Active; IC50 ([15]; cho-k1): Not Active
CC(C)n1c(/C=C/C(O)CC(O)CC(=O)O)c(-c2ccc(F)cc2)c2ccccc21 (stereo not drawn) [FLUVASTATIN]	Not Active	Not Active	Not Active	Not Active	Not Active	Not Active	Not Active	Not Active	Not Active	Not Active	Not Active	Not Active	Not Active	Not Active	Not Active	Not Active	Not Active	Not Active	Not Active	Not Active	IC50 ([9]; cho-k1): Not Active; IC50 ([13]; insect cells): Not Active; IC50 ([15]; cho-k1): Not Active
CN1C[C@H](C(=O)N[C@]2(C)O[C@@]3(O)[C@@H]4CCCN4C(=O)[C@H](Cc4ccccc4)N3C2=O)C=C2c3cccc4[nH]cc(c34)C[C@H]21 [ERGOTAMINE]	Not Active	Not Active	Not Active			Not Active	Not Active	Not Active	Not Active	Not Active		Not Active	Not Active	Not Active	Not Active	Not Active	Not Active	Not Active	Not Active	Not Active	IC50 ([3]; read-out: IC50): 3.65 nM; Ki ([3]; read-out: Ki): 2.43 nM; IC50 ([8]; read-out: IC50): 3.16 µM; IC50 ([9]; read-out: IC50): 4.14 µM; Ki ([9]; read-out: Ki): 2390 nM; IC50 ([13]; read-out: IC50): 6.5 µM; IC50 ([15]; read-out: IC50): 56 nM; Ki ([15]; read-out: Ki): 29 nM
CC(=O)OCC(=O)[C@@]1(OC(C)=O)[C@@H](C)C[C@H]2[C@@H]3C[C@H](F)C4=CC(=O)C=C[C@]4(C)[C@@]3(F)[C@@H](O)C[C@@]21C [DIFLORASONE DIACETATE]	Not Active	Not Active	Not Active	Not Active	Not Active	Not Active	Not Active	Not Active	Not Active	Not Active	Not Active	Not Active	Not Active	Not Active	Not Active	Not Active	Not Active	Not Active	Not Active	Not Active	IC50 ([9]; cho-k1): Not Active; IC50 ([13]; insect cells): Not Active; IC50 ([15]; cho-k1): Not Active
CC1(C)S[C@@H]2[C@H](NC(=O)[C@H](N)c3ccc(O)cc3)C(=O)N2[C@H]1C(=O)O [AMOXICILLIN]	Not Active	Not Active	Not Active	Not Active	Not Active	Not Active	Not Active	Not Active	Not Active	Not Active	Not Active	Not Active	Not Active	Not Active	Not Active	Not Active	Not Active	Not Active	Not Active	Not Active	IC50 ([9]; cho-k1): Not Active; IC50 ([13]; insect cells): Not Active; IC50 ([15]; cho-k1): Not Active
